Several values for one entry are separate records, joined by “and”; a condition that tells them apart may be missing. Identical values can stand only once. Toxic doses and inconclusive results are not listed. Cut-off read from the data, not from the text of the source: active = T/C of 150% or more; inactive = T/C below 125%.
Tested on: L1210 leukemia ip in BDF1 mice, survival T/C
Experiment: NCI In Vivo Anticancer Drug Screen. Data for tumor model L1210 Leukemia (intraperitoneal) in B6D2F1 (BDF1) mice
Conditions: endpoint: mean survival time, higher = longer survival
How it was run: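 Tumor was transplanted into mice, which were then dosed with test compound or vehicle alone. Survival was recorded for each group, and the treated figure was expressed relative to the control figure.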

[1] = dose: 100.0 mg/kg/injection, schedule: Q01DX009 (ip), vehicle: Klucel (hydroxypropylcellulose) (HPC)
[2] = dose: 200.0 mg/kg/injection, schedule: Q01DX009 (ip), vehicle: Klucel (hydroxypropylcellulose) (HPC)
[3] = dose: 400.0 mg/kg/injection, schedule: Q01DX009 (ip), vehicle: Klucel (hydroxypropylcellulose) (HPC)
[4] = dose: 100.0 mg/kg/injection, schedule: Q01DX009 (ip), vehicle: saline with Tween-80
[5] = dose: 25.0 mg/kg/injection, schedule: Q01DX009 (ip), vehicle: water
[6] = dose: 100.0 mg/kg/injection, schedule: Q01DX001 (ip), vehicle: saline
[7] = dose: 100.0 mg/kg/injection, schedule: Q01DX009 (ip), vehicle: saline
[8] = dose: 100.0 mg/kg/injection, schedule: Q04DX003 (ip), vehicle: saline
[9] = dose: 200.0 mg/kg/injection, schedule: Q01DX001 (ip), vehicle: saline
[10] = dose: 200.0 mg/kg/injection, schedule: Q01DX009 (ip), vehicle: saline
[11] = dose: 200.0 mg/kg/injection, schedule: Q04DX003 (ip), vehicle: saline
[12] = dose: 100.0 mg/kg/injection, schedule: Q04DX003 (ip), vehicle: Klucel (hydroxypropylcellulose) (HPC)
[13] = dose: 200.0 mg/kg/injection, schedule: Q04DX003 (ip), vehicle: Klucel (hydroxypropylcellulose) (HPC)
[14] = dose: 400.0 mg/kg/injection, schedule: Q04DX003 (ip), vehicle: Klucel (hydroxypropylcellulose) (HPC)
[15] = dose: 400.0 mg/kg/injection, schedule: Q01DX001 (ip), vehicle: saline
[16] = dose: 400.0 mg/kg/injection, schedule: Q04DX003 (ip), vehicle: saline
[17] = dose: 200.0 mg/kg/injection, schedule: Q01DX009 (ip), vehicle: saline with Tween-80
[18] = dose: 400.0 mg/kg/injection, schedule: Q01DX009 (ip), vehicle: saline with Tween-80
[19] = dose: 100.0 mg/kg/injection, schedule: Q04DX003 (ip), vehicle: saline with Tween-80
[20] = dose: 200.0 mg/kg/injection, schedule: Q04DX003 (ip), vehicle: saline with Tween-80
[21] = dose: 400.0 mg/kg/injection, schedule: Q04DX003 (ip), vehicle: saline with Tween-80
[22] = dose: 400.0 mg/kg/injection, schedule: Q01DX009 (ip), vehicle: saline

Measured: T/C

CC(=O)OC1CCC2(C)C(CCC3C2CC(=O)C2(C)C3CC(N3CC3)C2C(C)=O)C1 (centres undefined)
inactive: dose: 100.0 mg/kg/injection, schedule: Q01DX001 (sc), vehicle: steriod suspending solution 89 % of control | dose: 200.0 mg/kg/injection, schedule: Q01DX001 (sc), vehicle: steriod suspending solution 99 % of control | dose: 400.0 mg/kg/injection, schedule: Q01DX001 (sc), vehicle: steriod suspending solution 99 % of control

CS(=O)(=O)OCC1CCCCC1COS(C)(=O)=O (centres undefined)
inactive: [1] 107 % of control | [2] 104 % of control | [3] 93 % of control

CC(C)N(C(=O)Nc1cccc(F)c1)c1ccccc1
inactive: dose: 100.0 mg/kg/injection, schedule: Q01DX009 (ip), vehicle: gum acacia 96 % of control | dose: 200.0 mg/kg/injection, schedule: Q01DX009 (ip), vehicle: gum acacia 96 % of control | dose: 400.0 mg/kg/injection, schedule: Q01DX009 (ip), vehicle: gum acacia 90 % of control

Cc1ccc(C#CP(C#Cc2ccc(C)cc2)C#Cc2ccc(C)cc2)cc1
inactive: [4] 88 % of control

Nc1nc(N)c2cc(N3CCCC3c3ccc(Cl)cc3)ccc2n1 (centres undefined)
inactive: [5] 87 % of control

CC1C(=O)OC2C1CCC1(C)C=CC(=O)C3(C)OC213 (centres undefined)
inactive: dose: 100.0 mg/kg/injection, schedule: Q01DX001 (ip), vehicle: Klucel (hydroxypropylcellulose) (HPC) 97 % of control | dose: 200.0 mg/kg/injection, schedule: Q01DX001 (ip), vehicle: Klucel (hydroxypropylcellulose) (HPC) 94 % of control | dose: 400.0 mg/kg/injection, schedule: Q01DX001 (ip), vehicle: Klucel (hydroxypropylcellulose) (HPC) 96 % of control

Cc1cc(N(C)c2ccccc2)nc(N)n1
inactive: dose: 25.0 mg/kg/injection, schedule: Q01DX Z (ip), vehicle: methylcellulose (MC) 96 % of control

Cc1cc(Cl)c(C)c(C(=O)O)c1Cl
inactive: dose: 50.0 mg/kg/injection, schedule: Q01DX009 (ip), vehicle: saline 107 % of control | dose: 50.0 mg/kg/injection, schedule: Q04DX003 (ip), vehicle: saline 103 % of control | [6] 91 % of control | [7] 107 % of control | [8] 105 % of control | [9] 98 % of control | [10] 105 % of control | [11] 100 % of control

c1ccc(C2CC(c3ccccc3)S2)cc1 (centres undefined)
inactive: [12] 100 % of control | [13] 105 % of control | [14] 105 % of control

COc1ccc(C)cc1NC(=O)/C=C/c1ccccc1
inactive: dose: 100.0 mg/kg/injection, schedule: Q04DX002 (ip), vehicle: Klucel (hydroxypropylcellulose) (HPC) 100 % of control | dose: 200.0 mg/kg/injection, schedule: Q04DX002 (ip), vehicle: Klucel (hydroxypropylcellulose) (HPC) 100 % of control | dose: 400.0 mg/kg/injection, schedule: Q04DX002 (ip), vehicle: Klucel (hydroxypropylcellulose) (HPC) 100 % of control

CC1CCC2C(=CC(=O)CC2(C)C)C1 (centres undefined)
inactive: [6] 109 % of control | [8] 108 % of control | [9] 101 % of control | [11] 104 % of control | [15] 96 % of control | [16] 103 % of control

Cc1ccc(S(=O)(=O)N/N=C/C(O)C(O)C(O)C(O)CO)cc1 (centres undefined)
inactive: [4] 102 % of control | [17] 102 % of control | [18] 100 % of control

CC1=CC(c2ccc3c(c2)OCO3)c2c(c3ccccc3oc2=O)O1 (centres undefined)
inactive: dose: 6.25 mg/kg/injection, schedule: Q01DX009 (ip), vehicle: water 98 % of control | dose: 12.5 mg/kg/injection, schedule: Q01DX009 (ip), vehicle: water 93 % of control | [5] 100 % of control and 90 % of control | dose: 50.0 mg/kg/injection, schedule: Q01DX009 (ip), vehicle: water 86 % of control

CCOC(=O)C(=CNc1ccccn1)C(=O)OCC
inactive: [4] 100 % of control | [19] 93 % of control | [17] 104 % of control | [20] 93 % of control | [18] 97 % of control | [21] 97 % of control

O=C1CC(=C2C(=O)c3ccccc3C2=O)c2ccccc21
inactive: [19] 95 % of control | [20] 97 % of control | [21] 106 % of control

CCN(CC)CCNc1c(C)cc(CO)c(Cl)c1C
inactive: dose: 31.25 mg/kg/injection, schedule: Q01DX009 (ip), vehicle: saline 97 % of control | dose: 62.5 mg/kg/injection, schedule: Q01DX009 (ip), vehicle: saline 99 % of control | dose: 125.0 mg/kg/injection, schedule: Q01DX009 (ip), vehicle: saline 97 % of control | dose: 250.0 mg/kg/injection, schedule: Q01DX009 (ip), vehicle: saline 103 % of control

CCOc1ccc(-c2nccs2)cc1N
inactive: dose: 75.0 mg/kg/injection, schedule: Q04DX003 (ip), vehicle: Klucel (hydroxypropylcellulose) (HPC) 104 % of control | dose: 150.0 mg/kg/injection, schedule: Q04DX003 (ip), vehicle: Klucel (hydroxypropylcellulose) (HPC) 92 % of control | dose: 300.0 mg/kg/injection, schedule: Q04DX003 (ip), vehicle: Klucel (hydroxypropylcellulose) (HPC) 93 % of control

N#CC(=N)N1CCCCC1
inactive: [8] 98 % of control | [11] 112 % of control | [16] 109 % of control

COc1ccc(C(C#N)N2CCCC2)cc1 (centres undefined)
inactive: dose: 6.25 mg/kg/injection, schedule: Q01DX009 (ip), vehicle: other 95 % of control | dose: 6.25 mg/kg/injection, schedule: Q04DX003 (ip), vehicle: other 98 % of control | dose: 12.5 mg/kg/injection, schedule: Q01DX009 (ip), vehicle: other 95 % of control | dose: 12.5 mg/kg/injection, schedule: Q04DX003 (ip), vehicle: other 104 % of control | dose: 25.0 mg/kg/injection, schedule: Q04DX003 (ip), vehicle: other 96 % of control

CCOP(=O)(OCC)/C(C#N)=C\c1ccc(OC)c(OC)c1
inactive: [19] 97 % of control | [20] 92 % of control | [21] 92 % of control

NC(=O)NNC1OCC(O)C(O)C1O (centres undefined)
inactive: [7] 90 % of control | dose: 100.0 mg/kg/injection, schedule: Q04DX003 (ip), vehicle: water 96 % of control | [10] 95 % of control | dose: 200.0 mg/kg/injection, schedule: Q04DX003 (ip), vehicle: water 96 % of control | [22] 97 % of control | dose: 400.0 mg/kg/injection, schedule: Q04DX003 (ip), vehicle: water 97 % of control

Cc1ccc([N+](=O)[O-])c(OC(=O)Nc2ccc(Cl)c(Cl)c2)c1
inactive: [1] 101 % of control | [12] 96 % of control and 106 % of control | [2] 101 % of control | [13] 88 % of control | [3] 114 % of control | [14] 87 % of control and 91 % of control

COc1ccccc1NC(N)=O
inactive: [19] 98 % of control | [20] 107 % of control | [21] 98 % of control

O=Nn1c2ccccc2c2ccccc21
inactive: dose: 100.0 mg/kg/injection, schedule: Q04DX003 (ip), vehicle: gum acacia 92 % of control | dose: 200.0 mg/kg/injection, schedule: Q04DX003 (ip), vehicle: gum acacia 95 % of control | dose: 400.0 mg/kg/injection, schedule: Q04DX003 (ip), vehicle: gum acacia 87 % of control

O=C(O)/C=C/C(=O)Nc1ccccc1NC(=O)/C=C/C(=O)O
inactive: [1] 101 % of control | [2] 92 % of control | [3] 97 % of control

O=C(Nc1ccccc1)OC1CCCC2CCC21 (centres undefined)
inactive: [6] 97 % of control | [9] 90 % of control | [15] 90 % of control

O=C1CCCN1C(=O)c1ccccc1
inactive: [4] 101 % of control | [17] 95 % of control | [18] 95 % of control

OCCCCCCCCCCC[n+]1ccccc1Cc1ccccc1
inactive: dose: 75.0 mg/kg/injection, schedule: Q01DX001 (ip), vehicle: Klucel (hydroxypropylcellulose) (HPC) 92 % of control

N#CC1(c2ccc3c(c2)OCO3)C(c2ccc3c(c2)OCO3)CC(O)(c2ccccc2)C1C(=O)c1ccccc1 (centres undefined)
inactive: [4] 96 % of control | [17] 89 % of control | [18] 102 % of control

CC(O)c1ccc2ccccc2c1 (centres undefined)
inactive: [19] 98 % of control | [20] 101 % of control | [21] 96 % of control

CC(CS(=O)(=O)O)NC(CO)(CO)CO (centres undefined)
inactive: [7] 104 % of control | [8] 100 % of control | [10] 98 % of control | [11] 100 % of control | [22] 96 % of control | [16] 100 % of control

— PubChem BioAssay AID248 (DTP/NCI, 2004)
